System: bacteria, virus and yeast
Test: germicidal efficacy of surfactant-detergent compounds
Settings: surfactants tested separately and in combination
Text: Disinfecting surfactant-detergent compounds are also used in the liquid composition. Surfactants are effective germicides and attack the membranes of the organisms. Also, the surfactants are surface active reducing surface tension. […] It is thought that the surfactant has two characteristics which contribute to this invention. Those being germicidal activity including effectiveness over a wide range of organisms including bacteria, virus and yeast and providing a reduction of the surface tension of the composition to achieve effective spread and distribution if the germicide on the surface to be disinfected. Two different types of surfactants were tested separately and in combination for efficacy. […] There are other compounds which have the properties of germicide-surfactants, and this invention is not limited to those compounds shown in the examples.

| Compound | efficacy as germicide-surfactant |
| --- | --- |
| CCCCCCCCCCCCOS(=O)(=O)[O-].[Na+] [sodium dodecyl sulfate] | effective germicide-surfactants |
| octyl phenoxy polyethoxyethanol | effective germicide-surfactants |

— patent US20060222675A1, “Personal care compositions with color changing indicator” (priority 2005, published 2006)
